# Test results: PubChem BioAssay AID1159585 (Gregory J. Crowther, 2016)
# Biological target: Calcium-dependent protein kinase 1 (Plasmodium falciparum (isolate 3D7)) (UniProt P62344)
# Assay: PfCDPK1 kinase inhibitors, biochemical, TCAMS library (AID 1159585);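 note: inhibitors leave more ATP so luminescence rises with inhibition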
# Details: recombinant PfCDPK1, Kinase-Glo ATP depletion luminescence
# Sequence of Calcium-dependent protein kinase 1 (Plasmodium falciparum (isolate 3D7)) (P62344 whole entry, looked up): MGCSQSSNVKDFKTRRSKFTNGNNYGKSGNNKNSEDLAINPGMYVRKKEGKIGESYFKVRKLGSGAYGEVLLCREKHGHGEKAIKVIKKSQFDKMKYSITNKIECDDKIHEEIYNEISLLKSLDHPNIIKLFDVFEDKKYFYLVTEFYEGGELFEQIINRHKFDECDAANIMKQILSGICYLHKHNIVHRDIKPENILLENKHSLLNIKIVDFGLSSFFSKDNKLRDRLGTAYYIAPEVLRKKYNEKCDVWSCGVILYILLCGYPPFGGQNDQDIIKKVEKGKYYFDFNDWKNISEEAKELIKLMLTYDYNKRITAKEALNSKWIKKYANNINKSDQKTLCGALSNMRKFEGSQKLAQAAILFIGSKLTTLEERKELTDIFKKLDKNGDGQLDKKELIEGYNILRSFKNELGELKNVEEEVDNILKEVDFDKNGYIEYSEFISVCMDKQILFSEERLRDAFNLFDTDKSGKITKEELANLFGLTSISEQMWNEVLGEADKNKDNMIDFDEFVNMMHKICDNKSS
row,Compound,IC50 [nM]
1,Cc1ccc(Nc2nc3cc(N(C)c4ccnc(Nc5cccc(CCS(C)(=O)=O)c5)n4)ccc3n2C)cc1,160
2,CN1CCN(Cc2ccc(-c3ccc4c(Nc5cc(O)c(Cl)cc5F)ccnc4c3)o2)CC1,131
3,CCN(CC)CCOc1ccc(Nc2ncc3cc(-c4c(Cl)cccc4Cl)c(=O)n(C)c3n2)cc1,780
4,Oc1cccc(Nc2ccnc3cc(-c4nccs4)ccc23)c1,997
5,Cc1ccc(O)cc1Nc1ccnc2cc(-c3cccc(CNCCS(C)(=O)=O)c3)ccc12,125
6,Cc1cc(F)ccc1-c1nc(Nc2ccncc2)c2ccn(C)c2n1,40
7,COc1ccc(C(=O)NCC(C)(C)c2nc(-c3ccc(Cl)c(O)c3)c(-c3ccncc3)[nH]2)cc1OCCN(C(C)C)C(C)C,387
8,CS(=O)(=O)Cc1ccc(Nc2nccc(-c3c(-c4cccc(NC(=O)C5CCCCC5)c4)nn4ncccc34)n2)cc1,37
9,CCn1c(-c2nonc2N)nc2c(-c3cccc(Cl)c3)ncc(OCCCNCCc3cnc[nH]3)c21,138
10,CC(C)(C)CNCC(C)(C)c1nc(-c2ccc(Cl)c(O)c2)c(-c2ccncc2)[nH]1,159
11,Cc1cc(Nc2ncc(C#N)c(Nc3ccccc3C(N)=O)n2)ccc1N1CCN(C)CC1,10
12,COCCNCc1ncsc1-c1ccc2c(Nc3cc(O)c(Cl)cc3F)ccnc2c1,150
13,NCCNC(=O)c1ccc(-c2cnc3[nH]cc(-c4ccc(C(N)=O)cc4)c3c2)cc1,24
14,CN1CCN(Cc2cccc(-c3ccc4c(Nc5cc(O)c(Cl)cc5F)ccnc4c3)c2)CC1,762
15,CS(=O)(=O)CCNCc1cccc(-c2ccc3c(Nc4cc(O)c(Cl)cc4F)ccnc3c2)c1,71
16,NCCCOc1cnc(-c2ccccc2)c2nc(-c3nonc3N)n(CCc3ccccc3)c12,47
17,COc1cc(-c2nc(C(C)(C)CN)[nH]c2-c2ccncc2)ccc1Br,159
18,NC[C@H](CC1CCCCC1)NC(=O)c1ccc(-c2ccnc3[nH]ccc23)s1,492
19,O=c1[nH]ccc2nc(N[C@@H]3CCNC3)nc(Nc3ccc4c(c3)S(=O)(=O)CC4)c12,235
20,Clc1ccc(-c2cnc3ccc(NCCc4cccnc4)nn23)cc1,371
21,NCCNS(=O)(=O)c1ccc(-c2ccnc3[nH]c(-c4ccncc4)cc23)cc1,422

row,Compound,IC50 [nM]
1,O=C(NCC(c1ccc(C(F)(F)F)cc1)N1CCCC1)c1cc(-c2ccncc2)c(-c2cccc(O)c2)o1 (configuration not stated),283
2,CS(=O)(=O)Cc1ccc(Nc2nccc(-c3c(-c4cccc(NC(=O)c5c(F)cccc5F)c4)nn4ncccc34)n2)cc1,11
3,CC(C)(CN)c1nc(-c2ccc(Cl)c(O)c2)c(-c2ccncc2)[nH]1,10
4,O=S1(=O)NCc2ccc(Nc3nccc(Nc4ccc5c(cnn5Cc5ccccc5)c4)n3)cc21,110
5,Cc1cc(Nc2ncc(Cl)c(Nc3ccccc3C(N)=O)n2)n[nH]1,76
6,CN1CCN(CCCNCc2cccc(Nc3nccc(Nc4ccc(Oc5ccccc5)cc4)n3)c2)CC1,261
7,CC(C)(CNC(=O)C1CCN(CCOc2ccc(Cl)cc2)CC1)c1nc(-c2ccc(Cl)c(O)c2)c(-c2ccncc2)[nH]1,471
8,CN(C)CCOc1ccc(-c2cc(-c3ccc(Cl)c(O)c3)c(-c3ccnc(N)n3)o2)cc1,168
9,CCn1c(-c2nonc2N)nc2c(-c3cccc(NC(=O)Nc4ccc(C#N)cc4)c3)ncc(OCCCN)c21,235
10,O=C(NCCCN1CCCCC1)c1cccc(Nc2nccc(Nc3ccc(Oc4ccccc4)cc3)n2)c1,243
11,COc1ccc(-c2cnc3ccc(NC4CCC(O)CC4)nn23)cn1 (configuration not stated),379
12,CC(C)(CNC(=O)[C@@H]1CCCCN1)c1nc(-c2ccc(Cl)c(O)c2)c(-c2ccncc2)[nH]1,192
13,CNC(=O)c1ccccc1Nc1nc(Nc2ccc(C(=O)O)cc2)ncc1Cl,246
14,CN1CCN(Cc2cccc(Nc3nccc(Nc4ccc(Oc5ccccc5)cc4)n3)c2)CC1,801
15,CN(C)CCNCc1ccc(-c2ccc3c(Nc4ccc(Cl)cc4F)ccnc3c2)o1,374
16,CN1CCN(Cc2ccc(-c3ccc4c(Nc5ccc(Cl)cc5F)ccnc4c3)o2)CC1,406
17,NS(=O)(=O)CCc1cccc(Nc2nccc(-c3c(-c4cccc(NC(=O)c5c(F)cccc5F)c4)nn4ccccc34)n2)c1,20
18,O=c1[nH]ccc2nc(N[C@@H]3CCCNC3)nc(Nc3ccc(S(=O)(=O)N4CCOCC4)cc3)c12,146
19,CCN(CC)CCCOc1ccc(Nc2nccc(-c3c(-c4cccc(NC(=O)c5c(F)cccc5F)c4)nn4ccccc34)n2)cc1F,429
20,Cc1nc(-c2cccc(Nc3ccnc4cc(-c5nccs5)ccc34)c2)no1,191
21,CNC(=O)c1ccccc1Nc1nc(Nc2ccc(N3CCN(C)CC3)nc2)ncc1C,45

# More lines, now with the values ahead:
row,IC50 [nM],Compound
1,967,COc1ccc(Nc2ncc(OC)c(Nc3ccccc3C(N)=O)n2)cc1N1CCN(C)CC1
2,182,CCn1c(-c2nonc2N)nc2c(-c3cccc(NC(=O)Nc4cccc(C#N)c4)c3)ncc(OCCCN)c21
3,435,c1ccc(Oc2ccc(Nc3ccnc4cc(-c5ccc(CNCCN6CCOCC6)o5)ccc34)cc2)cc1
4,42,CCn1c(-c2nonc2N)nc2c(-c3ccccc3)ncc(OCCCNCCCN3CCOCC3)c21
5,979,COCCNCc1cccc(-c2ccc3c(Nc4ccc(Oc5ccccc5)cc4)ccnc3c2)c1
6,94,O=C(NCCCN1CCCCC1)c1ccc(Nc2nccc(Nc3ccc(Oc4ccccc4)cc3)n2)cc1
7,383,Fc1cc(Cl)ccc1Nc1ccnc2cc(-c3ccc(CNCCN4CCOCC4)o3)ccc12
8,84,CCn1c(-c2nonc2N)nc2c(-c3cccc(NC(=O)NC45CC6CC(CC(C6)C4)C5)c3)ncc(OCCCN)c21
9,213,O=C(NCCN1CCCC1)c1cccc(Nc2nccc(Nc3ccc(Oc4ccccc4)cc3)n2)c1
10,164,O=C(Nc1cccc(-c2nn3ccccc3c2-c2ccnc(Nc3cccc(-c4cnco4)c3)n2)c1)C1CCCCC1
11,22,O=C(Nc1cccc(-c2nn3ccccc3c2-c2ccnc(Nc3ccc(-c4ccn[nH]4)cc3)n2)c1)c1c(F)cccc1F
12,402,CN(C)Cc1cccc(-c2cc3c(-c4cnn(C)c4)c(Cl)cnc3[nH]2)c1
13,846,Oc1cc(-c2nc(C3(CNCc4ccc(Cl)cc4)CCCCC3)[nH]c2-c2ccncc2)ccc1Cl
14,213,CN1CCC=C(C(=O)NCC(C)(C)c2nc(-c3ccc(Cl)c(O)c3)c(-c3ccncc3)[nH]2)C1
15,755,CC(C)(CNCCOc1ccc(Cl)cc1)c1nc(-c2ccc(Cl)c(O)c2)c(-c2ccnc(N)n2)[nH]1
16,190,CC(C)(CNCc1ccccc1)c1nc(-c2ccc(Cl)c(O)c2)c(-c2ccncc2)[nH]1
17,40,O=C(Nc1c(F)cccc1F)c1cccc(-c2nn3ccccc3c2-c2ccnc(Nc3cccc(-c4cnco4)c3)n2)c1
18,451,CC(C)(CNCc1ccc(F)c(F)c1)c1nc(-c2ccc(Cl)c(O)c2)c(-c2ccncc2)[nH]1
19,798,N#CCc1ccc(Nc2nccc(Nc3ccc(Oc4ccccc4)cc3)n2)cc1
20,23,O=C(Nc1cccc(-c2nn3ncccc3c2-c2ccnc(Nc3cccc(-c4cnco4)c3)n2)c1)c1c(F)cccc1F
21,345,Cc1ccc(Nc2nccc(N(C)c3ccc4c(c3)nc(NC(=O)Cc3ccc(Cl)c(Cl)c3)n4C)n2)cc1S(N)(=O)=O
22,887,CN(C)CCNCc1nc(-c2ccc3c(Nc4ccc(Oc5ccccc5)cc4)ccnc3c2)cs1
23,94,CCn1c(-c2nonc2N)nc2c(-c3ccccc3)ncc(OCCCCNCCc3ncc[nH]3)c21

row,IC50 [nM],Compound
1,654,CCn1c(-c2nc(-c3ccnc(N4CCN(C)CC4)c3)cnc2N)nc2cc(S(C)(=O)=O)ccc21
2,604,CN(C)CCN(C)Cc1ccc(-c2ccc3c(Nc4ccc(Cl)cc4F)ccnc3c2)o1
3,87,COc1cccc(Nc2nccc(-c3c(-c4cccc(NC(=O)c5c(F)cccc5F)c4)nn4ccccc34)n2)c1
4,144,CC(C)(NCc1ncc[nH]1)c1nc(-c2ccc(Cl)c(O)c2)c(-c2ccncc2)[nH]1
5,15,CC(=O)Nc1cccc(Nc2nccc(-c3c(-c4cccc(NC(=O)c5c(F)cccc5F)c4)nn4ncccc34)n2)c1
6,280,Nc1ncc(-c2cn[nH]c2)cc1-c1nc2ncc(Cl)cc2[nH]1
7,135,O=C(NCCN1CCC(c2ccncc2)CC1)c1ccc(Nc2nccc(Nc3ccc(Oc4ccccc4)cc3)n2)cc1
8,915,CN(C)CCN(C)Cc1nc(-c2ccc3c(Nc4ccc(Oc5ccccc5)cc4)ccnc3c2)cs1
9,701,c1ccc(Oc2ccc(Nc3ccnc(Nc4ccc(OCCN5CCCCC5)cc4)n3)cc2)cc1
10,144,CNC(=O)c1ccccc1Nc1nc(Nc2ccc(N3CCOCC3)cc2)ncc1Cl
11,282,Oc1cc(Nc2ccnc3cc(I)ccc23)c(F)cc1Cl
12,58,NC(=O)c1ccccc1Nc1nc(Nc2cccc(N3CCN(CCO)CC3)c2)ncc1Cl
13,275,COc1cccc(CNCC(C)(C)c2nc(-c3ccc(Cl)c(O)c3)c(-c3ccncc3)[nH]2)c1
14,103,O=C(NCCN1CCCCC1)c1ccc(Nc2nccc(Nc3ccc(Oc4ccccc4)cc3)n2)cc1
15,390,COc1ccc(-c2cnc3[nH]cc(-c4ccncc4)c3c2)cc1OC
16,165,Nc1ncnc2occ(-c3ccc(NC(=O)Nc4cc(C(F)(F)F)ccc4F)cc3)c12
17,336,CCCN1CCN(CCNC(=O)c2cccc(Nc3nccc(Nc4ccc(Oc5ccccc5)cc4)n3)c2)CC1
18,33,O=c1[nH]ccc2nc(N[C@@H]3CCNC3)nc(Nc3cc(Cl)cc(Cl)c3)c12
19,60,COc1cc(Nc2nccc(-c3c(-c4cccc(NC(=O)c5c(F)cccc5F)c4)nn4ccccc34)n2)cc(OC)c1OC
20,501,COc1ccc2nc(-c3cc(-c4ccc(NC(C)=O)cc4)cnc3N)[nH]c2c1
21,664,CC(C)(CNC(=O)C1CCN(CCOc2ccc(F)c(F)c2)CC1)c1nc(-c2ccc(Cl)c(O)c2)c(-c2ccncc2)[nH]1
22,38,O=C(Nc1cccc(-c2nn3ccccc3c2-c2ccnc(Nc3ccc(NCCCN4CCOCC4)c(F)c3)n2)c1)c1c(F)cccc1F
